Target: phosphorylated active hERK2 enzyme (Homo sapiens (Human), UniProt P28482)
Assay: Active Human ERK2 (hERK2) Activity Assay (IMAP-FP)
Format: biochemical
Conditions: Table 6, 0.5 nM hERK2, 30 μM ATP, 10 point titration, read-out: AERK2 IC50
Method in brief: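 IMAP detection beads in buffer with 24 mM NaCl stopped the reaction, and fluorescence polarization was read after 60 min binding.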

phosphorylated active hERK2 enzyme, sequence (P28482 whole entry): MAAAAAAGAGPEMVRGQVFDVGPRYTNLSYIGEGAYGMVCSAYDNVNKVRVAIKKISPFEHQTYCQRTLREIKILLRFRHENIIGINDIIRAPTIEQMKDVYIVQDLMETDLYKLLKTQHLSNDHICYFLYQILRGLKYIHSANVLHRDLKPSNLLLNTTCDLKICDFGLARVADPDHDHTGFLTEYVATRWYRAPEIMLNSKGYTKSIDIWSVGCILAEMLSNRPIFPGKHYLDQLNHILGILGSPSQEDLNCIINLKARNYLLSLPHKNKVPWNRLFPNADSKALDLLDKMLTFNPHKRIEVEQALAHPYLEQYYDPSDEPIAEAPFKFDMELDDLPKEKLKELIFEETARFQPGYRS

Structure (SMILES) | IC50 [nM]
CC(=O)Nc1n[nH]c2cc(NC(=O)N[C@@H](c3ccc(F)cc3)C(C)(C)O)ncc12 [Example 395, N-[6-({[(1S)-1-(4-fluorophenyl)-2-hydroxy-2-methylpropyl]-carbamoyl}amino)-1H-pyrazolo[4,3-c]-pyridin-3-yl]-acetamide] | 0.6
O=C(Nc1cc2[nH]nc(NC(=O)N3CC(F)(F)C3)c2cn1)N[C@H]1c2ccccc2OCC[C@H]1O [Example 396] | 0.3
O=C(Nc1cc2[nH]nc(NC(=O)N3CC(F)(F)C3)c2cn1)N[C@@H]1CCCOc2ccccc21 [Example 397, 3,3-difluoro-N-(6-{[(5R)-2,3,4,5-tetrahydro-1-benzoxepin-5-yl-carbamoyl]amino}-1H-pyrazolo[4,3-c]pyridin-3-yl)-azetidine-1-carboxamide] | 4.4
CC(C)OC(=O)Nc1n[nH]c2cc(NC(=O)N[C@H](C)c3ccc(F)cc3)ncc12 [Example 398, 1-methylethyl [6-({[(1R)-1-(4-fluorophenyl)ethyl]carbamoyl}amino)-1H-pyrazolo[4,3-c]pyridin-3-yl]-carbamate] | 52.5
C[C@@H](NC(=O)Nc1cc2[nH]nc(NC(=O)OC3CCOCC3)c2cn1)c1ccc(F)cc1 [Example 399, tetrahydro-2H-pyran-4-yl [6-({[(1R)-1-(4-fluorophenyl)ethyl]carbamoyl}amino)-1H-pyrazolo[4,3-c]pyridin-3-yl]-carbamate] | 19.7
CC(C)(O)[C@@H](NC(=O)Nc1cc2[nH]nc(NC(=O)OC3CCOCC3)c2cn1)c1ccc(F)cc1 [Example 400, tetrahydro-2H-pyran-4-yl [6-({[(1S)-1-(4-fluorophenyl)-2-hydroxy-2-methylpropyl]-carbamoyl}amino)-1H-pyrazolo[4,3-c]pyridin-3-yl]-carbamate] | 1.6
C[C@@H](NC(=O)Nc1cc2[nH]nc(NC(=O)OC3CCOC3)c2cn1)c1ccc(F)cc1 (stereo partly drawn) [Example 401, tetrahydrofuran-3-yl [6-({[(1R)-1-(4-fluorophenyl)ethyl]carbamoyl}amino)-1H-pyrazolo[4,3-c]pyridin-3-yl]-carbamate] | 15.3
CC(C)(O)[C@@H](NC(=O)Nc1cc2[nH]nc(NC(=O)OC3CCOC3)c2cn1)c1ccc(F)cc1 (stereo partly drawn) [Example 402, tetrahydrofuran-3-yl [6-({[(1S)-1-(4-fluorophenyl)-2-hydroxy-2-methyl-propyl]carbamoyl}amino)-1H-pyrazolo[4,3-c]-pyridin-3-yl]-carbamate] | 2.9
CC(C)OC(=O)Nc1n[nH]c2cc(NC(=O)N[C@@H](c3ccc(F)cc3)C(C)(C)O)ncc12 [Example 403, 1-methylethyl [6-({[(1S)-1-(4-fluorophenyl)-2-hydroxy-2-methyl-propyl]carbamoyl}amino)-1H-pyrazolo[4,3-c]-pyridin-3-yl]-carbamate] | 1.1
C[C@@H](NC(=O)Nc1cc2[nH]nc(NC(=O)OCCO)c2cn1)c1ccc(F)cc1 [Example 404, 2-hydroxyethyl [6-({[(1R)-1-(4-fluorophenyl)ethyl]carbamoyl}amino)-1H-pyrazolo[4,3-c]pyridin-3-yl]-carbamate] | 5.3
C[C@@H](NC(=O)Nc1cc2[nH]nc(NC(=O)OCC(F)F)c2cn1)c1ccc(F)cc1 [Example 405, 2,2-difluoroethyl [6-({[(1R)-1-(4-fluorophenyl)ethyl]carbamoyl}amino)-1H-pyrazolo[4,3-c]pyridin-3-yl]-carbamate] | 21.6
CC(C)(O)[C@@H](NC(=O)Nc1cc2[nH]nc(NC(=O)OCC(F)F)c2cn1)c1ccc(F)cc1 [Example 406, 2,2-difluoroethyl [6-({[(1S)-1-(4-fluorophenyl)-2-hydroxy-2-methyl-propyl]carbamoyl}amino)-1H-pyrazolo[4,3-c]-pyridin-3-yl]-carbamate] | 1.5
CC(Nc1n[nH]c2cc(NC(=O)N[C@H](C)c3ccccc3)ncc12)C(F)(F)F (stereo partly drawn) [Example 407, 1-[(1R)-1-phenylethyl]-3-{3-[(2,2,2-trifluoro-1-methylethyl)amino]-1H-pyrazolo[4,3-c]pyridin-6-yl}urea] | 2.4
C[C@@H](NC(=O)Nc1cc2[nH]nc(N3CCCC3=O)c2cn1)c1ccccc1 [Example 408, 1-[3-(2-oxopyrrolidin-1-yl)-1H-pyrazolo[4,3-c]-pyridin-6-yl]-3-[(1R)-1-phenylethyl]urea] | 101
C[C@@H](NC(=O)Nc1cc2[nH]nc(N3CCC(O)CC3)c2cn1)c1ccccc1 [Example 409, 1-[3-(4-hydroxypiperidin-1-yl)-1H-pyrazolo[4,3-c]-pyridin-6-yl]-3-[(1R)-1-phenylethyl]urea] | 2.4
COC[C@@H](NC(=O)Nc1cc2[nH]nc(N3CCC(O)CC3)c2cn1)c1ccccc1 [Example 410, 1-[3-(4-hydroxypiperidin-1-yl)-1H-pyrazolo[4,3-c]-pyridin-6-yl]-3-[(1S)-2-methoxy-1-phenylethyl]urea] | 1.2
CCNc1n[nH]c2cc(NC(=O)N[C@@H]3CCC[C@H]3OC)ncc12 [Example 411, 1-[3-(ethylamino)-1H-pyrazolo[4,3-c]pyridin-6-yl]-3-[(1R,2R)-2-methoxy-cyclopentyl]urea] | 99.3

Structure (SMILES) | IC50 [nM]
CCNc1n[nH]c2cc(NC(=O)NC(C(=O)N(CC)CC)c3ccc(F)cc3)ncc12 (stereo not shown) [Example 412, N,N-diethyl-2-({[3-(ethylamino)-1H-pyrazolo[4,3-c]-pyridin-6-yl]-carbamoyl}amino)-2-(4-fluoro-phenyl)acetamide] | 421
COC1CCN(c2n[nH]c3cc(NC(=O)N[C@H](C)c4ccccc4)ncc23)CC1 [Example 413, 1-[3-(4-methoxypiperidin-1-yl)-1H-pyrazolo[4,3-c]-pyridin-6-yl]-3-[(1R)-1-phenylethyl]urea] | 4.5
CCNc1n[nH]c2cc(NC(=O)NC(C(=O)N(C)C)c3ccc(F)cc3)ncc12 (stereo not shown) [Example 414, 2-({[3-(ethylamino)-1H-pyrazolo[4,3-c]-pyridin-6-yl]-carbamoyl}amino)-2-(4-fluorophenyl)-N,N-dimethyl-acetamide] | 413
COC[C@@H](NC(=O)Nc1cc2[nH]nc(N3CCC(OC)CC3)c2cn1)c1ccccc1 [Example 415, 1-[(1S)-2-methoxy-1-phenylethyl]-3-[3-(4-methoxypiperidin-1-yl)-1H-pyrazolo[4,3-c]pyridin-6-yl]urea] | 1
CO[C@@H]1CCC[C@H]1NC(=O)Nc1cc2[nH]nc(N)c2cn1 [Example 416, 1-(3-amino-1H-pyrazolo[4,3-c]pyridin-6-yl)-3-[(1R,2R)-2-methoxy-cyclopentyl]urea] | 483
COC[C@@H](NC(=O)Nc1cc2[nH]nc(NC(C)C(F)(F)F)c2cn1)c1ccccc1 (stereo partly drawn) [Example 417, 1-[(1S)-2-methoxy-1-phenylethyl]-3-{3-[(2,2,2-trifluoro-1-methylethyl)-amino]-1H-pyrazolo[4,3-c]-pyridin-6-yl}urea] | 0.6
CC(Nc1n[nH]c2cc(NC(=O)N[C@H](C)c3ccccc3)ncc12)C(F)(F)F (stereo partly drawn) [Example 418, 1-[(1R)-1-phenylethyl]-3-{3-[(2,2,2-trifluoro-1-methylethyl)amino]-1H-pyrazolo[4,3-c]pyridin-6-yl}urea] | 3.2
CC(Nc1n[nH]c2cc(NC(=O)N[C@H](C)c3ccccc3)ncc12)C(F)(F)F (stereo partly drawn) [Example 419, 1-[(1R)-1-phenylethyl]-3-{3-[(2,2,2-trifluoro-1-methylethyl)amino]-1H-pyrazolo[4,3-c]pyridin-6-yl}urea] | 2.2
CCNc1n[nH]c2cc(NC(=O)N[C@@H](c3ccccc3)C(C)(C)O)ncc12 [Example 420, 1-[3-(ethylamino)-1H-pyrazolo[4,3-c]pyridin-6-yl]-3-[(1S)-2-hydroxy-2-methyl-1-phenylpropyl]urea] | 2.1
COC[C@@H](NC(=O)Nc1cc2[nH]nc(NC(C)C(F)(F)F)c2cn1)c1ccccc1 (stereo partly drawn) [Example 421, 1-[(1S)-2-methoxy-1-phenylethyl]-3-{3-[(2,2,2-trifluoro-1-methylethyl)-amino]-1H-pyrazolo[4,3-c]-pyridin-6-yl}urea] | 0.6
COC[C@@H](NC(=O)Nc1cc2[nH]nc(NC(C)C(F)(F)F)c2cn1)c1ccccc1 (stereo partly drawn) [Example 422, 1-[(1S)-2-methoxy-1-phenylethyl]-3-{3-[(2,2,2-trifluoro-1-methylethyl)-amino]-1H-pyrazolo[4,3-c]-pyridin-6-yl}urea] | 0.8
C[C@@H](NC(=O)Nc1cc2[nH]nc(N3CCC(C#N)CC3)c2cn1)c1ccccc1 [Example 423, 1-[3-(4-cyanopiperidin-1-yl)-1H-pyrazolo[4,3-c]-pyridin-6-yl]-3-[(1R)-1-phenylethyl]urea] | 9.7
C[C@@H](NC(=O)Nc1cc2[nH]nc(N3CCC(C)(O)CC3)c2cn1)c1ccccc1 [Example 424, 1-[3-(4-hydroxy-4-methylpiperidin-1-yl)-1H-pyrazolo[4,3-c]-pyridin-6-yl]-3-[(1R)-1-phenylethyl]urea] | 21.5
CC(C)(O)[C@@H](NC(=O)Nc1cc2[nH]nc(N)c2cn1)c1ccccc1 [Example 425, 1-(3-amino-1H-pyrazolo[4,3-c]-pyridin-6-yl)-3-[(1S)-2-hydroxy-2-methyl-1-phenylpropyl]urea] | 14.9
COC1CCN(c2n[nH]c3cc(NC(=O)N[C@H](COC(F)F)c4ccccc4)ncc23)CC1 [Example 426, 1-[(1S)-2-(difluoromethoxy)-1-phenylethyl]-3-[3-(4-methoxy-piperidin-1-yl)-1H-pyrazolo[4,3-c]-pyridin-6-yl]urea] | 1
CSC1CCN(c2n[nH]c3cc(NC(=O)N[C@H](C)c4ccccc4)ncc23)CC1 [Example 427, 1-{3-[4-(methylsulfanyl)-piperidin-1-yl]-1H-pyrazolo[4,3-c]-pyridin-6-yl}-3-[(1R)-1-phenylethyl]urea] | 15.1
CC(Nc1n[nH]c2cc(NC(=O)N[C@H](COC(F)F)c3ccccc3)ncc12)C(F)(F)F (stereo partly drawn) [Example 428, 1-[(1S)-2-(difluoromethoxy)-1-phenylethyl]-3-{3-[(2,2,2-trifluoro-1-methylethyl)-amino]-1H-pyrazolo[4,3-c]-pyridin-6-yl}urea] | 1.3
